From the CheMixHub ionic liquid set

Experiment: xn = mol fraction of the nth substance listed
Details: for electrical conductivity: 101 kPa, frequency 2 MHz; for viscosity: 100 kPa

O=S(=O)([O-])C(F)(F)F.[Li+] + O=S(=O)([N-]S(=O)(=O)C(F)(F)F)C(F)(F)F.[Li+] + O
Details	electrical conductivity, 298.1 K [S/m]	electrical conductivity, 303 K [S/m]	electrical conductivity, 308.1 K [S/m]	electrical conductivity, 313 K [S/m]	viscosity, 298.15 K [mPa·s]	viscosity, 308.15 K [mPa·s]
x1 = 0.04029, x2 = 0.1114	–	–	–	–	7.5	5.6
x1 = 0.07222, x2 = 0.1893	–	–	–	–	29.1	20.6
x1 = 0.09226, x2 = 0.2336	–	–	–	–	69	45.7
x1 = 0.1024, x2 = 0.2553	–	–	–	–	98	63
x1 = 0.1122, x2 = 0	–	–	–	–	3.7	2.9
x1 = 0.1122, x2 = 0.2745	–	–	–	–	152	94.6
x1 = 0.1783, x2 = 0	–	–	–	–	9.2	6.9
x1 = 0.2388, x2 = 0	–	–	–	–	21.9	16
x1 = 0.2541, x2 = 0	–	–	–	–	31.8	22.6
x1 = 0.2743, x2 = 0	–	–	–	–	47.2	32.9
x2 = 0.001799, x1 = 0.0005943	–	0.867	0.961	1.06	–	–
x2 = 0.005377, x1 = 0.001799	–	2.117	2.36	2.61	–	–
x2 = 0.00893, x1 = 0.003054	2.76	3.1	3.46	3.835	–	–
x2 = 0.01246, x1 = 0.004127	3.46	3.9	4.36	4.834	–	–
x2 = 0.01596, x1 = 0.005377	4.045	4.56	5.1	5.66	–	–
x2 = 0.01944, x1 = 0.006623	4.522	5.1	5.702	6.331	–	–
x2 = 0.05129, x1 = 0.0177	6.08	6.85	7.67	8.518	–	–
x2 = 0.08265, x1 = 0.02921	5.326	6.011	6.732	7.48	–	–
x2 = 0.112, x1 = 0.04029	4.123	4.67	5.239	5.838	–	–
x2 = 0.1395, x1 = 0.05129	3.035	3.45	3.89	4.36	–	–
x2 = 0.1654, x1 = 0.06203	2.18	2.5	2.839	3.201	–	–
x2 = 0.1898, x1 = 0.07238	1.55	1.79	2.05	2.334	–	–
x2 = 0.2128, x1 = 0.08265	1.09	1.28	1.48	1.7	–	–
x2 = 0.2345, x1 = 0.0927	0.768	0.908	1.06	1.234	–	–
x2 = 0.2551, x1 = 0.1024	0.537	0.643	0.763	0.895	–	–
x2 = 0.2745, x1 = 0.112	0.374	0.454	0.545	0.647	–	–
